# Measurements as given in patent publication US20150064200A1, “METHODS AND COMPOSITIONS FOR 6-PHOSPHOGLUCONATE DEHYDROGENASE (6-PGD) AS A TARGET FOR LUNG CANCER THERAPY” (BETH ISRAEL DEACONESS MEDICAL CENTER, INC., priority 2012, published 2015).
# Values joined by “and” are separate entries in the source; they are usually repeats but may differ in a detail not shown here. Equal values may be shown once.
# What was measured:
# [1] = test system: mouse 6-PGD; experiment: Western blot of exogenous mouse 6-PGD expression in rescue experiment; format: cell-based; conditions: H1975 cells transduced with mouse-6PGD retrovirus, doxycycline induction
# Text: (§1) To test the functional role of 6-PGD in human non small cell lung carcinoma (NSCLC), we used H1975 cells as our model system (FIG. 2A). These adenocarcinoma cells harbor two mutations in the EGFR (L858R/T790M) and are widely used to study the mechanism and treatment of gefitinib/erlotinib-resistant lung cancer cells. We chose to use an inducible shRNA system to knock down 6-PGD expression. Three nonoverlapping shRNAs were chosen in these experiments. […] Importantly, 6-PGD expression knockdown caused a substantial decrease in cell proliferation. To further corroborate the involvement of 6-PGD in NSCLC proliferation in vitro, we performed expression rescue experiments (FIG. 2B). H1975 cells expressing control shRNA or 6-PGD shRNA1 were transduced by either empty- or mouse-6PGD retrovirus. […] Overexpression of mouse 6-PGD alone enhanced H1975 cell growth. […] Our result confirmed that the growth inhibition was due to 6-PGD knockdown and not a non-specific artifact of the shRNA.
# [2] = test system: H1975 cells; experiment: Cell proliferation of H1975 cells upon knockdown; format: cell-based, human; conditions: 6-PGD knockdown
# Text: as §1
# The dramatic decrease in cell proliferation when 6-PGD was knocked down implies that the oxidative branch of the pentose phosphate pathway (PPP) could be indispensable for cell growth. […] To address this discrepancy, we next knocked down G6PD by transient siRNA transfection in H1975 cells. […] Therefore, the dramatic growth inhibition observed when 6-PGD was knocked down was not simply a result of PPP blockade. […]
# [3] = test system: 6-PGD; experiment: Western blot of 6-PGD expression after inducible shRNA knockdown; format: cell-based, human; conditions: H1975 cells
# Text: as §1
# [4] = test system: H1975 cells; experiment: Oxygen consumption rate (OCR); format: cell-based, human
# Text: We suspected that upon 6-PGD knockdown, these cells might have maintained NADPH level by enhanced glutaminolysis, another major mechanism for NADPH production. We therefore examined the rate of oxygen consumption of these cells, as NADPH production via glutaminolysis requires oxygen.
# [5] = test system: p53; experiment: Western blot of p53 expression in cells with 6-PGD knockdown; format: cell-based, human; conditions: H1975 cells
# Text: One of the main mechanisms for cellular senescence induction is the p53 pathway. Therefore we hypothesized that p53 expression might be increased in cells with 6-PGD knockdown.
# [6] = test system: senescence-associated beta galactosidase (SA-β-GAL) activity; experiment: Senescence-associated beta galactosidase (SA-β-GAL) staining and chromogenic assay; format: cell-based, human; conditions: cells with 6-PGD knockdown
# Text: We noticed that the cells with 6-PGD knocked down were enlarged and flattened-shapes characteristic of cells undergoing senescence. We therefore stained the cells for senescence-associated beta galactosidase (SA-β-GAL) activity. Because shRNA1 and shRNA2 had the most dramatic effects on 6-PGD expression and cell proliferation, we opted to test these two shRNAs in these experiments. […] Therefore, we concluded that suppression of 6-PGD induces cellular senescence in these cancer cells.
# We tested whether the use of glucose or fructose in the medium might influence the phenotypic outcome of 6-PGD suppression. Fructose can be used to generate glycolytic metabolites via different pathways. For example, in the liver, fructose can be phosphorylated by fructokinase to yield fructose-1-phosphate and ultimately glyceraldehyde-3-phosphate to re-enter glycolysis. Fructose can also enter glycolysis when phosphorylated by hexokinase to become fructose-6-phosphate. We reasoned that if H1975 could metabolize fructose by these mechanisms, cells grown in fructose without glucose would likely be devoid of glucose-6-phosphate, bypassing the oxidative branch of the PPP. This scenario may be similar to the PPP shutdown by means of G6PD depletion. H1975 cells were treated with doxycycline to induce 6-PGD knockdown in 2 g/L fructose (no glucose). […]
# [7] = test system: H1975 cells; experiment: H1975 xenograft tumor growth in nude mice; format: in vivo; conditions: H1975 cells induced with doxycycline, subcutaneous in nude mice, tumors weighed after 18 days
# Text: We sought to test whether 6-PGD knockdown would inhibit tumor growth in a xenograft model. Control shRNA-, 6-PGD shRNA1, and 6-PGD shRNA2-H1975 cells were induced with doxycycline in vitro for three days prior to subcutaneous injection into nude mice. Mice were fed with doxycycline supplemented in drinking water. Tumors were excised after 18 days and weighed.
# [8] = test system: H1975 cells; experiment: Metabolite levels by mass spectrometry upon 6-PGD knockdown; format: cell-based, human; conditions: H1975, doxycycline three days, vs control shRNA
# Experimental: Both control- and 6-PGD shRNA1-expressing H1975 cells were treated with doxycycline for three days. Metabolites were extracted for analysis by mass spectrometry. Results are grouped according to metabolic pathways (Table 5). […] Specifically, as might be expected, 6-phospho-D-gluconate and D-glucono-δ-lactone-6-phosphate levels were up by 11 and 7.9 fold, respectively. Direct determination of the effects in the non-oxidative branch was more difficult, as levels of some key intermediates such as xylulose-5-phosphate and D-sedo-heptulose-7-phosphate were not determined in our mass spectrometric analysis. However, there was no change in the level of total ribose phosphates, downstream products of the PPP. Importantly, levels of all the triphosphate nucleotides essential for DNA and RNA synthesis were essentially unchanged. […] Glycolysis also appeared to be affected by 6-PGD knockdown. Both glucose-6-phosphate and fructose-6-phosphate levels were increased, perhaps due to a backlog in the PPP. […] We believe that these intermediates were shunted to the non-oxidative PPP via the transketolase reactions using glyceraldehyde-3-phosphate as the entry point. These transketolase reactions would compensate for the blockade at 6-PGD and provide a carbon source for ribose phosphate production and maintenance of dNTP/NTP levels. […] In particular NADPH level was determined by this metabolomic analysis to be also unchanged by 6-PGD knockdown, consistent with result obtained by the colorimetric assay (FIG. 5A).
substance,measurement,setting,value
"shRNA1: 6-PGD specific shRNA from Open Biosystems, Oligo ID V3LHS_381993, mature sequence AGU UUG AUG GUG AUA AGA A (guide AGUUUGAUGGUGAUAAGAA; shRNA hairpin; mature sequence only)",expression of mouse 6-PGD,[1],without affecting the expression of mouse 6-PGD
same,cell proliferation,[2],significantly blocked proliferation
same,expression of 6-PGD,[3],most effective
same,oxygen consumption rate (OCR),[4],significant increase
same,p53 expression,[5],significantly upregulated
same,number of cells positive for SA-β-GAL staining,[6],significantly increased
same,tumor growth,[7],significantly retarded tumor growth
same,Fold Change Glutamate,[8]; Glutamine/Glutamate,−1.1 fold
same,Fold Change Glutamine,[8]; Glutamine/Glutamate,−1.1 fold
same,"Fold Change 1,3-Diphopshateglycerate",[8]; Glycolysis,0.0 fold
same,Fold Change 3-Phosphoglycerate,[8]; Glycolysis,−2.1 fold
same,Fold Change D-Glyceraldehdye-3-phosphate,[8]; Glycolysis,−3.8 fold
same,Fold Change Dihyroxyacetone-phosphate,[8]; Glycolysis,−5.9 fold
same,"Fold Change Fructose-1,6-bisphosphate",[8]; Glycolysis,−4.6 fold
same,Fold Change Fructose-6-phosphate,[8]; Glycolysis,1.4 fold
same,Fold Change Glucose-6-phosphate,[8]; Glycolysis,1.8 fold
same,Fold Change Lactate,[8]; Glycolysis,−1.2 fold
same,Fold Change Phosphoenolpyruvate,[8]; Glycolysis,−2.8 fold
same,Fold Change Pyruvate,[8]; Glycolysis,1.3 fold
same,Fold Change ATP,[8]; NTPs/dNTPs,1.2 fold
same,Fold Change CTP,[8]; NTPs/dNTPs,1.0 fold
same,Fold Change GTP,[8]; NTPs/dNTPs,1.5 fold
same,Fold Change UTP,[8]; NTPs/dNTPs,1.2 fold
same,Fold Change dATP,[8]; NTPs/dNTPs,−1.1 fold
same,Fold Change dCTP,[8]; NTPs/dNTPs,1.0 fold
same,Fold Change dGTP,[8]; NTPs/dNTPs,1.2 fold
same,Fold Change dTTP,[8]; NTPs/dNTPs,−1.2 fold
same,Fold Change D-Glucono-δ-lactone-6-phosphate,[8]; PPP,7.9 fold
same,Fold Change Ribose-phosphate,[8]; PPP,1.2 fold
same,Fold Change 6-Phospho-D-gluconate,"[8]; PPP, listed as 6-PGD shRNA1",11 fold and 11.0 fold
same,Fold Change Glutathione,[8]; REDOX,−1.3 fold
same,Fold Change Glutathione disulfide,[8]; REDOX,1.0 fold
same,Fold Change NAD+,[8]; REDOX,1.2 fold
same,Fold Change NADH,[8]; REDOX,−1.5 fold
same,Fold Change NADP+,[8]; REDOX,1.3 fold
same,Fold Change NADPH,[8]; REDOX,−1.1 fold
same,Fold Change Acetyl-CoA,[8]; TCA,1.6 fold
same,Fold Change Citrate,[8]; TCA,1.1 fold
same,Fold Change Fumarate,[8]; TCA,1.0 fold
same,Fold Change Isocitrate,[8]; TCA,−1.1 fold
same,Fold Change Malate,[8]; TCA,−1.3 fold
same,Fold Change Oxaloacetate,[8]; TCA,−1.1 fold
same,Fold Change Succinate,[8]; TCA,−1.3 fold
same,Fold Change α-Ketoglutarate,[8]; TCA,−1.2 fold
"shRNA2: 6-PGD specific shRNA from Open Biosystems, Oligo ID V3LHS_381995, mature sequence AGG ACU GUC UCC AAA GUU G (guide AGGACUGUCUCCAAAGUUG; shRNA hairpin; mature sequence only)",expression of 6-PGD,[3],most effective
same,oxygen consumption rate (OCR),[4],significant increase
same,p53 expression,[5],significantly upregulated
same,number of cells positive for SA-β-GAL staining,[6],significantly increased
same,tumor growth,[7],significantly retarded tumor growth
